Test results as given in the NIST ThermoML archive (doi:10.1016/j.fluid.2015.07.022).
± gives the expanded uncertainty stated by the source.

Conditions: 298.15 K; for viscosity / mass density: 100 kPa, Liquid; for viscosity: Capillary tube (Ostwald / Ubbelohde) method; for mass density: Vibrating tube method
[1] = Kruss K11 tensiometer with Wilhelmy plate

viscosity | surface tension liquid-gas (Kruss K11 tensiometer and Wilhelmy plate) | Compound | surface tension liquid-gas [1] | mass density
1.359 ± 0.015 mPa·s |  | CCCCCCCCCCCC [dodecane] | 24.9 ± 0.2 mN/m | 745.23 ± 0.14 kg/m3
0.899 ± 0.01 mPa·s | 72 ± 0.2 mN/m | O [water] |  | 

Compound | viscosity | surface tension liquid-gas (Kruss K11 tensiometer and Wilhelmy plate) | surface tension liquid-gas [1] | mass density
CCCCCCCCCCCCCC[P+](CCCCCC)(CCCCCC)CCCCCC.N#C[N-]C#N [tetradecyl(trihexyl)phosphonium dicyanamide] | 437.8 ± 17 mPa·s |  | 33.1 ± 0.4 mN/m | 897.36 ± 0.72 kg/m3
